Active and inactive are the calls of the source.
Columns and labels:
[1] = Luminescence Cell-Based Dose Response HTS to Identify Inhibitors of 5'UTR Stem-Loop Driven Prion Protein mRNA Translation in H4 Neuroglioblastoma Cells. [Related pubchem assays: 1827 (Project Summary), 1813 (Primary HTS)]; type: functional
[2] = alpha-synuclein stem-loop luciferase translation blockers – H4 neuroglioma cells, luminescence, confirmation (AID 1988); type: functional, cell-based
[3] = luciferase reporter signal suppression in cells – H4 neuroglioma cells, luminescence, dose response (AID 1990); type: functional, cell-based
[4] = reduction of Shn3 3'UTR-driven luciferase in osteoblasts – cell-based, Clone20 osteoblasts, firefly luciferase, cherry-picked, dose response (AID 624132); type: functional;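 note: firefly luciferase luminescence from reporter carrying the Shn3 3'UTR in osteoblasts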
[5] = non-specific 3'UTR reporter inhibition in Clone20-Shn3RL – cell-based, Renilla luciferase, cherry-picked, counter-screen for Shn3 inhibitor project, dose response (AID 624133); type: functional
[6] = loss of viability in HepG2 cells – cell-based, CellTiter-Glo, cherry-picked, cytotoxicity control for Shn3 inhibitor project, dose response (AID 624134); type: functional
[7] = molecular target: Induced myeloid leukemia cell differentiation protein Mcl-1 (Homo sapiens, UniProt Q07820); type: functional
Large T antigen = Large T antigen (Simian virus 40, UniProt P03070); type: functional, Betapolyomavirus macacae;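 note: Confirmatory-stage PubChem screen for compounds that inhibit SV40 T antigen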
[8] = P. falciparum Dd2 growth inhibitors, dose response, SYBR Green, cherry-picked samples (AID 1159567); type: functional, cell-based
Paired box protein Pax-8 = Paired box protein Pax-8 (Homo sapiens, UniProt Q06710); experiment: PAX8 transcriptional activity inhibition in RMG-I – RMG-I cells, luciferase, cherry-pick, dose response (AID 687027); type: functional, cell-based;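 note: luciferase reporter driven by Pax8 target thyroperoxidase promoter measured by SteadyGlo luminescence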
H9c2 = experiment: cells; type: functional, cell-based; details: Rattus norvegicus, H9c2, Myocardium;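 note: confirmatory concentration-response retest of ultra-high-throughput screening hits for modulation of myocardial damage; cell death induced by hydrogen peroxide oxidative stress; compound pretreatment for 60 min then peroxide exposure for 2 h; potency is for protecting the cells against peroxide damage rather than for killing them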
[9] = molecular target: T1, Ubiquitin-conjugating enzyme E2 N (Homo sapiens, UniProt P61088); type: functional;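 note: Dose-response confirmation in a TR-FRET assay detecting UBC13-driven polyubiquitin chain formation, inhibition measured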
T1 sequence (P61088 whole entry): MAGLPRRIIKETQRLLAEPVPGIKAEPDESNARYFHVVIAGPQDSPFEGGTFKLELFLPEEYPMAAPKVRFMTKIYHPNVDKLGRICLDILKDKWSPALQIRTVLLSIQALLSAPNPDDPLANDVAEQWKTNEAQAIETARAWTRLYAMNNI

[10] = molecular target: T2, Rac GTPase-activating protein 1 (Homo sapiens, UniProt Q9H0H5); experiment: blockers of MgcRacGAP-driven Rac1 GTP hydrolysis – biochemical, ADP Hunter fluorescence, primary and confirmatory, confirmation (AID 624330); type: functional
T2 sequence (Q9H0H5 whole entry): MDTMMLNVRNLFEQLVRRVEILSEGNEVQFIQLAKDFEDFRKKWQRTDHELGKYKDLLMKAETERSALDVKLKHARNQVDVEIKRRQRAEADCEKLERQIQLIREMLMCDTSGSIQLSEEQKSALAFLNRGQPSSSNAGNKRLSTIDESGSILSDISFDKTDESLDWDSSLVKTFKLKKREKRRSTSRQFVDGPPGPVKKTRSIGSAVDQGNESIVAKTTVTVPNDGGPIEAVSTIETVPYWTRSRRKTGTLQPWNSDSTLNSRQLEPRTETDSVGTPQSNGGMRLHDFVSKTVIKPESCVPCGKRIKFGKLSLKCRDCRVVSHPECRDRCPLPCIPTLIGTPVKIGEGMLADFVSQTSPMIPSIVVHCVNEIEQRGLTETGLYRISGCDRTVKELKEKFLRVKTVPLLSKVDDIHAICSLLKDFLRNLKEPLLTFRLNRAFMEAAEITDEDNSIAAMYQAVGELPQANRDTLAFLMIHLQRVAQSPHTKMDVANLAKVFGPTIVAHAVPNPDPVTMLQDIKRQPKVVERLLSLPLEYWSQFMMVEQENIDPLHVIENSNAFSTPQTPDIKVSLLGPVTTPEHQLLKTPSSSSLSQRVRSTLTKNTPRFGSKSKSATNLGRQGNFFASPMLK

Cytochrome P450 2C9 = Cytochrome P450 2C9 (Homo sapiens, UniProt P11712)
[11] = molecular target: T3, Corticotropin-releasing factor receptor 2/Corticotropin-releasing factor-binding protein (Homo sapiens, UniProt P24387+Q13324); experiment: Dose Response confirmation of uHTS hits for small molecule antagonists of the CRF-binding protein and CRF-R2 receptor complex.; type: functional; details: read-out: IC50_Mean
T3 sequence (Q13324 whole entry): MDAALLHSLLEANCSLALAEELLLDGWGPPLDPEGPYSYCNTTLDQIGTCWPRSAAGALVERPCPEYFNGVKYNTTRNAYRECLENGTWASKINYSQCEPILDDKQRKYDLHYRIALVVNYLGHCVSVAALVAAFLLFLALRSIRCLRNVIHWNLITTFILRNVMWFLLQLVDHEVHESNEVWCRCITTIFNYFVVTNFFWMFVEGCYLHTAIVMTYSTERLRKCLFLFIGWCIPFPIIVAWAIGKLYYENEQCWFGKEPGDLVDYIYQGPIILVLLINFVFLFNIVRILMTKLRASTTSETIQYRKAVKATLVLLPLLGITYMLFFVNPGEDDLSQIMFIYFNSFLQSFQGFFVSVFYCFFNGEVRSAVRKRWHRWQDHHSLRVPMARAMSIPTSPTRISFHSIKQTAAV
T3 sequence (P24387 whole entry): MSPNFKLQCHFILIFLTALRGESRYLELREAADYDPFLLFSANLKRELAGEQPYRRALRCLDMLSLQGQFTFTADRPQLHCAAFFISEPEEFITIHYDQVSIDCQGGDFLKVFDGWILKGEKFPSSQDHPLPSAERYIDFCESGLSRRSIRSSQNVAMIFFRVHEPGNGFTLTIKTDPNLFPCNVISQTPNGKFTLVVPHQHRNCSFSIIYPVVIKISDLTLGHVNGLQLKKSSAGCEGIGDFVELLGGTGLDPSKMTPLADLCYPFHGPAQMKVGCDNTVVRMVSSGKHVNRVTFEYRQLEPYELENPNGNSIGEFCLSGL

[12] = molecular target: T3, Corticotropin-releasing factor receptor 2/Corticotropin-releasing factor-binding protein; experiment: activators of CRF receptor 2 with binding protein – uHTS hits, confirmation (AID 602473); type: functional; details: read-out: EC50_Mean
[13] = molecular target: T4, Heat shock factor protein 1 (Mus musculus, UniProt P38532); experiment: enhancement of HSF1-driven luciferase signal – cell-based, NIH3T3, luminescence, dose retest, confirmation (AID 435004); type: functional;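 note: stress induced by proteasome inhibitor MG132 added 30 min after compound; luciferase reporter driven by HSF1 response element in NIH3T3 cells; actives raise luminescence as potentiators of the MG132 stress response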
T4 sequence (P38532 whole entry): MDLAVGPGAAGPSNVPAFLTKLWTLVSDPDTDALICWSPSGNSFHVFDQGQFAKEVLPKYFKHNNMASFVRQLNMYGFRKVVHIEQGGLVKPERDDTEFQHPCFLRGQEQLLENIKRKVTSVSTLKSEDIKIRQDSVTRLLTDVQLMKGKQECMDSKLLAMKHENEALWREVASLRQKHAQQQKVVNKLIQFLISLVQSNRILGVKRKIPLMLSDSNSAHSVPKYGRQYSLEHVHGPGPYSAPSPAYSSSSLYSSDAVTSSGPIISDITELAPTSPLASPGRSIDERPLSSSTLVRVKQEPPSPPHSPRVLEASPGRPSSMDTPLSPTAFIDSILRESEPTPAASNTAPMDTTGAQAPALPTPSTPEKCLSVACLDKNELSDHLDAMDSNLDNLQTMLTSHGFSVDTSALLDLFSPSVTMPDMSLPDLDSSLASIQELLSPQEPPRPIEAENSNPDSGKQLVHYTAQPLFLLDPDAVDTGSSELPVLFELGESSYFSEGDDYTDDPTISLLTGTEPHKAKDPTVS

Cytochrome P450 3A4 = Cytochrome P450 3A4 (Homo sapiens, UniProt P08684);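 note: CYP3A4 tested as one member of a cytochrome P450 panel screen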
[14] = viability of uninfected HEp-2 cells – cell-based, HTS, cytotoxicity control for RSV inhibitor project, dose response (AID 2410); type: functional; details: human respiratory syncytial virus
Nonstructural protein 1 = Nonstructural protein 1 (Influenza A virus, UniProt Q194T2); type: functional, Influenza A virus (A/California/07/2009(H1N1))

NS(=O)(=O)c1ccc(CCNC(=O)c2ccc([N+](=O)[O-])cc2[N+](=O)[O-])cc1
EC50 [1]: > 120 µM (not active)
EC50 [2]: > 120 µM (not active)
EC50 [3]: > 120 µM (not active)

CCOC(=O)C1(CCOc2ccccc2)CCN(Cc2ccc(OC)c(COC)c2)CC1
AC50 [4]: 3.87 µM (active)
AC50 [5]: 20.5 µM (active)
AC50 [6]: 32.5 µM (active)

COC(=O)c1ccc(CSc2nc(-c3ccccc3)cs2)o1
IC50 [7]: 3.49 µM (not active)

Cc1ccccc1-c1nnc(S)n1/N=C/C=C/c1ccco1
IC50 (Large T antigen): 53 µM (active)

Cc1ccc(-c2ccc([C@H]3[C@@H](CO)N4C(=O)CN(C(=O)Nc5cccc(F)c5)C[C@H]34)cc2)cc1
AC50 [8]: 6.09 µM (active)

Cn1nnnc1Sc1ncnc2scc(-c3ccccc3Cl)c12
AC50 (Paired box protein Pax-8): 2.42 µM (active)

O=C(COC(=O)Cn1cnc2ccccc21)Nc1ccc2c(c1)C(=O)c1ccccc1C2=O
IC50 [7]: 6.69 µM (active)

COc1ccc(-c2ccc(Nc3ccc(S(=O)(=O)N4CCCC4)cc3)nn2)cc1OC
AC50 [4]: 20.1 µM (active)
AC50 [5]: 27.6 µM (active)
IC50 (H9c2): > 79 µM (inactive)

NC1=NC[C@H](Cc2ccccc2)N1CCc1cc(C(F)(F)F)cc(C(F)(F)F)c1
IC50 [9]: > 20 µM (inactive)

c1ccc2c(CCN3CCNC[C@H]3Cc3cccc4ccccc34)cccc2c1
IC50 [9]: > 20 µM (inactive)

O=[N+]([O-])c1cccc(S(=O)(=O)N/N=C/c2ccc(O)cc2)c1
IC50 (Large T antigen): 10.6 µM (active)
IC50 [10]: 49.5 µM (active)

CCCN(C)C[C@H]1Oc2cc(C#Cc3cccnc3)ccc2S(=O)(=O)N([C@H](C)CO)C[C@H]1C
AC50 [8]: 3.19 µM (active)

N#CC(C#N)=C(N)/C(C#N)=C/c1cc(O)c(O)c(O)c1 [TYRPHOSTIN 51]
IC50 (Large T antigen): 19.8 µM (active)

Cc1ccc2nc(O)c(N=C(N)S)nc2c1
IC50 [9]: > 20 µM (inactive)
AC50 (Cytochrome P450 2C9): 10 µM (inconclusive)

CN(C)c1ccc(NC(=O)CN2CCC(N3CCCCC3)CC2)cc1
IC50 (Large T antigen): 22.9 µM (active)

CN1CCN(S(=O)(=O)c2ccc(N(C)Cc3ccc(C(F)(F)F)cc3)c([N+](=O)[O-])c2)CC1
AC50 [4]: 6.3 µM (active)
AC50 [5]: 17.6 µM (active)
AC50 [6]: 45.9 µM (active)

CC[C@@H](C)[C@@H]1CN([C@@H](C)CN2CCC[C@H]2CN2C(N)=NC[C@H]2CC(C)C)C(=N)N1CCc1ccc(Cl)c(Cl)c1
IC50 [9]: > 20 µM (inactive)

CN(C)C(CNC(=O)c1coc2ccccc2c1=O)c1ccccc1 (centres undefined)
IC50 [9]: > 20 µM (inactive)

Cn1c(=O)cc(OCCCC(=O)NCCN2CCN(c3ccccc3F)CC2)c2ccccc21
IC50 [9]: > 20 µM (inactive)
IC50 [11]: > 47.1 µM (inactive)
EC50 [12]: > 53 µM (inactive)

Cn1c(C(=O)NCCOc2ccccc2Cl)cc(=O)n(C)c1=O
EC50 [1]: > 120 µM (not active)
EC50 [2]: > 120 µM (not active)
EC50 [3]: > 120 µM (not active)

Cc1c(Br)c(C(=O)NNC(=O)c2ccc(C(C)(C)C)cc2)nn1C
IC50 [9]: > 20 µM (inactive)

COc1cccc(/C=C2/NC(=O)NC2=O)c1OCC(=O)Nc1ccccc1
EC50 [1]: > 120 µM (not active)
EC50 [2]: > 120 µM (not active)
EC50 [3]: > 120 µM (not active)

COc1ccc(C(=O)Cn2c(C(=O)/C=C/c3ccccc3)nc3ccccc32)cc1
AC50 [4]: 4.47 µM (active)
AC50 [6]: 59.1 µM (active)
EC50 [13]: 4.59 µM (active)

Cc1c(O)c(CN2CCCCC2)cc2c1oc(=O)c1ccccc12
IC50 [11]: > 47.1 µM (inactive)
EC50 [12]: > 53 µM (inactive)
IC50 (H9c2): 6.18 µM (active)

Cc1ccc(OCCCC(=O)Nc2ccccc2C(F)(F)F)cc1
AC50 (Cytochrome P450 3A4): 15.8 µM (inconclusive)
IC50 [7]: > 54 µM (not active)

COC(=O)c1[nH]c2ccc(C)cc2c1NC(=O)C1=COCCO1
EC50 [1]: > 120 µM (not active)
EC50 [2]: > 120 µM (not active)
EC50 [3]: > 120 µM (not active)

Cc1ccc(OCCCC(=O)Nc2ccc(S(=O)(=O)N3CCOCC3)cc2)cc1
IC50 [9]: > 20 µM (inactive)

Cc1cccc(S(=O)(=O)N2C[C@@H]3N[C@H](C2)[C@@H]3c2ccc(-c3cccnc3)cc2)c1
AC50 [8]: 6 µM (active)

Cc1ccc2nc(-c3ccc(NC(=O)CCS(=O)(=O)c4ccccc4)cc3)sc2c1
EC50 [1]: 6.83 µM (active)
CC50 [14]: 37.3 µM (active)
EC50 [2]: 6.26 µM (active)

CCS(=O)(=O)N1CCC2(CC1)CN(Cc1ccc3c(c1)OCO3)[C@H](CO)c1[nH]c3cc(OC)ccc3c12
AC50 [8]: 5.03 µM (active)

O=C(NN=Cc1c(O)ccc2ccccc12)c1ccc[n+](CCO)c1
IC50 (Nonstructural protein 1): 3.07 µM (active)

COc1ccc(C(c2c(O)cc(C)oc2=O)c2c(O)cc(C)oc2=O)cc1
IC50 [7]: 1.45 µM (not active)

C[C@@H]1CN([C@H](C)CO)C(=O)c2c(c3ccccc3n2C)-c2ccccc2CO[C@@H]1CN(C)C(=O)c1cc(Cl)cc(Cl)c1
AC50 [8]: 3.06 µM (active)

Cc1cc(-c2nnc(S)n2/N=C/C=C/c2ccco2)[nH]n1
IC50 (Large T antigen): 32.1 µM (active)

— ChEMBL document CHEMBL1201862, “PubChem BioAssay data set” (2004)
